Results from patent US5451522A, “Genes encoding and method of expressing an enzyme: phthalyl amidase” (priority 1994, dated 1995).

Key:
phthalyl amidase [1] = target: T1, phthalyl amidase (Xanthobacter agilis, UniProt P0C2Y0); test: Preparative scale hydrolysis to carbacephem nucleus; type: biochemical
T1 construct: 42-aa signal peptide removed
Procedure: Thus, either compound XXXIII or III can be used to prepare the carbacephem nucleus (XXXIV). Substrate (4 grams) was added to 20 ml of deionized water and the pH of the solution was adjusted to 8.0 with concentrated ammonium hydroxide. Phthalyl amidase, 80 units as determined using the chromogenic substrate (II), was added to start the reaction. Temperature was maintained at 30° C. and the pH maintained at 8.0 by adding 2N ammonium hydroxide. […] The pH of the reaction was lowered to 5.0 thereby precipitating the carbacephem nucleus. Isolated yields of the nucleus were between 65% and 77%. [drawing 26]

phthalyl amidase [2] = target: T1, phthalyl amidase; test: Kinetic parameters for phthalyl amidase; type: biochemical; details: 50 mM potassium phosphate buffer, pH 8.0, 30° C.
Procedure: The kinetic parameters of the enzyme were determined for several representative substrates. Compounds II, XVII, and XVIII were tested using 0.9 μg/ml of enzyme. Compounds III and XI were tested using 5.14 μg/ml of enzyme. Substrate concentrations were between 0 and 25 mM and reaction time was between 2 and 20 minutes, depending on the substrate used. […] Km is the Michaelis constant for enzyme kinetics, Vmax is the maximal rate of reaction calculated by the Michaelis-Menten equation, and Kcat is the catalytic constant for an enzyme reaction.

phthalyl amidase [3] = target: T1, phthalyl amidase; test: Substrate specificity: chemical structure requirements for enzyme activity; type: biochemical; details: 2.5 μmol compound, 0.3 units enzyme, 50 mM phosphate pH 8.0, 30° C.
Procedure: (§1) The activity of phthalyl amidase against 25 compounds was determined. The compounds were divided into beta-lactams (Table 9), phthalyl amides (Table 10), and aromatic ring substituted amides (Table 11). Each reaction mixture (1 ml total volume) contained 2.5 μmol of compound and 0.3 units of enzyme (based on the chromogenic substrate) of the preparative scale purified enzyme, in 50 mM phosphate buffer, pH 8.0. The reactions were conducted at 30° C. Samples of the reaction mixture were taken at various times, and methanol (equal volume) was added to stop the reaction. The samples were examined by HPLC to determine the extent of substrate hydrolysis. The amount of compound hydrolyzed was calculated from a standard curve of the test compound. All substrates were stable in buffer at 30° C. and pH 8.0 in the absence of enzyme for 24 hours.

phthalyl amidase [4] = target: T1, phthalyl amidase; test: Chiral and additional substrate selectivity of phthalyl amidase; type: biochemical; details: Table 13; III = 100; 0.009 mg (0.6 units) enzyme, 2.5 μmol substrate, buffer A, 30° C.
Procedure: Several additional substrates were tested in a total volume of 1 ml. […] Reactions were stopped by the addition of methanol, and phthalic acid formation was monitored by HPLC.

[5] = Stability of substrates in buffer without enzyme; type: physicochemical; details: buffer at pH 8.0
Procedure: as §1
Thus, either compound XXXIII or III can be used to prepare the carbacephem nucleus (XXXIV). Substrate (4 grams) was added to 20 ml of deionized water and the pH of the solution was adjusted to 8.0 with concentrated ammonium hydroxide. Phthalyl amidase, 80 units as determined using the chromogenic substrate (II), was added to start the reaction. Temperature was maintained at 30° C. and the pH maintained at 8.0 by adding 2N ammonium hydroxide. […] The pH of the reaction was lowered to 5.0 thereby precipitating the carbacephem nucleus. […]

T1 sequence (P0C2Y0 2-453): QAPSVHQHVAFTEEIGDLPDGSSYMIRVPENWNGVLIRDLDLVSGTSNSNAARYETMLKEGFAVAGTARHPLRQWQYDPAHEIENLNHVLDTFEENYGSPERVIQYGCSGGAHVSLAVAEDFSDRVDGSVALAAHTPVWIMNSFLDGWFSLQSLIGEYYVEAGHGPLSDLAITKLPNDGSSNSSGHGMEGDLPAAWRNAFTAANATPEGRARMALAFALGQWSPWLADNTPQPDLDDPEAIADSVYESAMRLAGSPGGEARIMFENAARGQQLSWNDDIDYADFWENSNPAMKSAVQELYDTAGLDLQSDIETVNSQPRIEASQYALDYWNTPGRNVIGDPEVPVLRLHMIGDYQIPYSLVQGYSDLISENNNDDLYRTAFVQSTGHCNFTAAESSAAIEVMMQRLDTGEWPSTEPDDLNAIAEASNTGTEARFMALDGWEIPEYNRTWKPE

With `O=C(O)C1=C(Cl)CCC2C(NC(=O)c3ccccc3C(=O)O)C(=O)N12` (stereo not shown) [III, 7-phthalamido-3-chloro-4-carboxy-1-carba-dethioceph-3-em] the “hydrolyzed (HPLC)” value (phthalyl amidase [1]; phthalyl amidase, […], pH 8) was 90.0%, the Vmax (phthalyl amidase [2]) was 7.6 µmol/min/mg and the Relative Activity (phthalyl amidase [3]; Table 9 beta-lactams, III = 100) was 100. The “Relative Activity” value (phthalyl amidase [3]; Table 10 phthalyl amides, III = 100.0) was 100.0 and the “Relative Activity” value (phthalyl amidase [4]) was 100.
For `O=C(O)C1=C(Cl)CCC2C(N3C(=O)c4ccccc4C3=O)C(=O)N12` (stereo not shown) [XXXIII], the “hydrolyzed (HPLC)” value (phthalyl amidase [1]; 4 grams substrate, 80 units enzyme, pH 8.0, 30° C., after 510 minutes) was 98% and the “hydrolysis of phthalimido to phthalamido form in buffer (in words)” value [5] was “readily hydrolyzes”.
